Measured values published in PMC6332353, “New Sulphated Flavonoids from Wissadula periplocifolia (L.) C. Presl (Malvaceae)” (Molecules, 2015).
≈ marks a conversion by molar mass, not a printed value.

Legend:
[1] = test system: prostate carcinoma cell line (PC-3M); test: alamarBlue cytotoxicity assay, PC-3M cells; assay type: cell-based; conditions: Homo sapiens, tumour cell line, 24 h treatment, 0.4–100 µg/mL, mean ± SD
Description: (§1) All media and supplements were obtained from Invitrogen (Paisley, UK). The following human cell lines were used in the current study: the human glioma cancer cell line (UVW) previously described, the prostate carcinoma cell line (PC-3M), the normal prostate epithelial cell line (PNT2A), and the normal foreskin fibroblast cell line (Hs27). All cell lines were obtained from in house stocks (UVW) or from stocks purchased from the ATCC (Rockville, MD, USA) and are routinely genetically verified and confirmed as free from mycoplasma contamination. UVW, PNT2A, and Hs27 cells were maintained in Eagle’s Minimum Essential Medium (MEM), RPMI 1640 Medium, and Dulbecco’s Modified Eagle’s Medium (DMEM), respectively. All media were supplemented with 10% v/v fetal bovine serum, penicillin (100 units/mL), streptomycin (100 μg/mL), Fungizone (2.5 μg/mL of amphotericin B), and L-glutamine (2 mM). The PC-3M cells were cultured in the same MEM medium as described for UVW cells with the addition of 1% v/v MEM Non-essential Amino Acids Solution, 1% v/v MEM Vitamin Solution, and 1mM sodium pyruvate. The cells were cultured at 37 °C in a humidified atmosphere of 5% CO2.
(§2) Each sample tested was dissolved in DMSO at 50 mg/mL and kept at −20 °C until extract preparation was proceeded. For the biological assays, the samples were diluted in culture medium to get the selected concentrations. The toxicity of the flavonoids on UVW, PC-3M, PNT2A, and Hs27 cells was assessed by the fluorometric measurement of metabolic activity using the AlamarBlue assay (Invitrogen). Briefly, cells were seeded on 96-well culture plates (3.3 × 10^3cells/well). […] Fluorescence was measured on a micro plate fluorescence reader (Spectramax Gemini XS, Molecular Devices, Sunnyvale, CA, USA) using an excitation wavelength of 560 nm and an emission wavelength of 590 nm. Cell viability was calculated and plotted as the percentage of metabolically active cells relative to the control. […]

[2] = test system: human glioma cancer cell line (UVW); test: alamarBlue cytotoxicity assay, UVW cells; assay type: cell-based; conditions: tumour cell line, 24 h treatment, 0.4–100 µg/mL, mean ± SD
Description: as §1, §2

[3] = test system: normal prostate epithelial cell line (PNT2A); test: alamarBlue cytotoxicity assay, PNT2A cells; assay type: cell-based; conditions: Homo sapiens, 24 h treatment, 0.4–100 µg/mL, mean ± SD
Description: as §1, §2

[4] = test system: normal foreskin fibroblast cell line (Hs27); test: alamarBlue cytotoxicity assay, Hs27 cells; assay type: cell-based; conditions: Homo sapiens, 24 h treatment, 0.4–100 µg/mL, mean ± SD
Description: All media and supplements were obtained from Invitrogen (Paisley, UK). The following human cell lines were used in the current study: the human glioma cancer cell line (UVW) previously described, the prostate carcinoma cell line (PC-3M), the normal prostate epithelial cell line (PNT2A), and the normal foreskin fibroblast cell line (Hs27). All cell lines were obtained from in house stocks (UVW) or from stocks purchased from the ATCC (Rockville, MD, USA) and are routinely genetically verified and confirmed as free from mycoplasma contamination. UVW, PNT2A, and Hs27 cells were maintained in Eagle’s Minimum Essential Medium (MEM), RPMI 1640 Medium, and Dulbecco’s Modified Eagle’s Medium (DMEM), respectively. All media were supplemented with 10% v/v fetal bovine serum, penicillin (100 units/mL), streptomycin (100 μg/mL), Fungizone (2.5 μg/mL of amphotericin B), and L-glutamine (2 mM). […] The toxicity of the flavonoids on UVW, PC-3M, PNT2A, and Hs27 cells was assessed by the fluorometric measurement of metabolic activity using the AlamarBlue assay (Invitrogen). […] Fluorescence was measured on a micro plate fluorescence reader (Spectramax Gemini XS, Molecular Devices, Sunnyvale, CA, USA) using an excitation wavelength of 560 nm and an emission wavelength of 590 nm. Cell viability was calculated and plotted as the percentage of metabolically active cells relative to the control. […]

lung cancer A549 = test system: lung cancer A549; set-up: method as in PMID 25000464; conditions: cited from earlier work
sarcoma 180 = test system: sarcoma 180; set-up: method as in earlier work; conditions: tumours implanted in mice; cited from earlier work
[5] = test system: carcinoma of Ehrlich tumours; set-up: method as in earlier work; conditions: tumours implanted in mice; cited from earlier work

Compound	IC50 [1] [µg/mL]	IC50 [2] [µg/mL]	IC50 [3] [µg/mL]	IC50 [4] [µg/mL]	toxic effects on A549 cells (in words) (lung cancer A549)	tumour growth inhibition, sarcoma 180 (sarcoma 180)	tumour growth inhibition, carcinoma of Ehrlich [5]
COc1ccc(-c2cc(=O)c3c(O)cc(OC)c(O)c3o2)cc1 [7,4′-di-O-methylisoscutellarein]	> 100	98.5 ± 1.13 (≈ 314 µM)	88.7 ± 1.13 (≈ 282 µM)	–	–	–	–
COc1ccc(-c2cc(=O)c3c(O)cc(O)cc3o2)cc1 [acacetin]	21.1 ± 1.16 (≈ 74.3 µM)	27.4 ± 1.09 (≈ 96.3 µM)	51.3 ± 1.09 (≈ 181 µM)	> 100	–	–	–
O=C(/C=C/c1ccc(O)cc1)OC[C@H]1O[C@@H](Oc2c(-c3ccc(O)cc3)oc3cc(O)cc(O)c3c2=O)[C@H](O)[C@@H](O)[C@@H]1O [tiliroside, kaempferol-3-O-b-D-(6′′-E-p-coumaroyl) glucopyranoside]	60.5 ± 1.12 (≈ 102 µM)	> 100	> 100	–	toxic effects	significantly inhibited the growth	significantly inhibited the growth
